From ChEMBL document CHEMBL1133242, “Selective alpha1a adrenergic receptor antagonists based on 4-aryl-3,4-dihydropyridine-2-ones” (Bioorg Med Chem Lett, 2000)

How the values were obtained:
[1] = target: T1, Alpha-1B adrenergic receptor (Homo sapiens, UniProt P35368); assay: In vitro antagonism at Alpha-1B adrenergic receptor; format: functional
T1 sequence (P35368 whole entry): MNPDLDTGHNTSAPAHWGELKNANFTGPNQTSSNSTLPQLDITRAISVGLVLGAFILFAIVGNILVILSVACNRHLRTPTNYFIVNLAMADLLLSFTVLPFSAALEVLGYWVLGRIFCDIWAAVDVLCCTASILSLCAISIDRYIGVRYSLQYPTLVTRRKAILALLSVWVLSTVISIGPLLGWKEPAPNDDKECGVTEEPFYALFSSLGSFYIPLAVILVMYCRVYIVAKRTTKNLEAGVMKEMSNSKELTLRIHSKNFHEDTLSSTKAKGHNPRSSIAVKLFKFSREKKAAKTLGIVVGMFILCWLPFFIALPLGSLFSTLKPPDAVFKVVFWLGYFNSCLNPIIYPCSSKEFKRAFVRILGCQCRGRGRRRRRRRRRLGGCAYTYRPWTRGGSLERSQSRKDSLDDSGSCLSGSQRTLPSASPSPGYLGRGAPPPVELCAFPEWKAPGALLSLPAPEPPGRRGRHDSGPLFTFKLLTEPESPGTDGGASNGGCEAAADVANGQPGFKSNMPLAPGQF

[2] = target: T2, Alpha-1A adrenergic receptor (Homo sapiens, UniProt P35348); assay: In vitro antagonism at Alpha-1A adrenergic receptor; format: functional
T2 sequence (P35348 whole entry): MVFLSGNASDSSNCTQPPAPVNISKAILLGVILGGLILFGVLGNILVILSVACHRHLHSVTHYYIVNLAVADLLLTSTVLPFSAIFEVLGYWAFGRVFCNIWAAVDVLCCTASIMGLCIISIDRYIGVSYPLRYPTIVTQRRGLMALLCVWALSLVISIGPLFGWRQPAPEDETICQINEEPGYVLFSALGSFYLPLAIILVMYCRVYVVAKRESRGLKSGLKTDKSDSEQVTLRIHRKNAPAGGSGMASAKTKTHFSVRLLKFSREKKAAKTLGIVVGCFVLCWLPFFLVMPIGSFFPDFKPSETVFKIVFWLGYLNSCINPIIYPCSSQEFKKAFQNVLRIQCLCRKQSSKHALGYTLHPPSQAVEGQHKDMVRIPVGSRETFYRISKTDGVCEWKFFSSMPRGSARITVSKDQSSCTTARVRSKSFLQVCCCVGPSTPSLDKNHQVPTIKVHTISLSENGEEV

[3] = target: T3, Alpha-1D adrenergic receptor (Homo sapiens, UniProt P25100); assay: In vitro antagonism at Alpha-1D adrenergic receptor; format: functional
T3 sequence (P25100 whole entry): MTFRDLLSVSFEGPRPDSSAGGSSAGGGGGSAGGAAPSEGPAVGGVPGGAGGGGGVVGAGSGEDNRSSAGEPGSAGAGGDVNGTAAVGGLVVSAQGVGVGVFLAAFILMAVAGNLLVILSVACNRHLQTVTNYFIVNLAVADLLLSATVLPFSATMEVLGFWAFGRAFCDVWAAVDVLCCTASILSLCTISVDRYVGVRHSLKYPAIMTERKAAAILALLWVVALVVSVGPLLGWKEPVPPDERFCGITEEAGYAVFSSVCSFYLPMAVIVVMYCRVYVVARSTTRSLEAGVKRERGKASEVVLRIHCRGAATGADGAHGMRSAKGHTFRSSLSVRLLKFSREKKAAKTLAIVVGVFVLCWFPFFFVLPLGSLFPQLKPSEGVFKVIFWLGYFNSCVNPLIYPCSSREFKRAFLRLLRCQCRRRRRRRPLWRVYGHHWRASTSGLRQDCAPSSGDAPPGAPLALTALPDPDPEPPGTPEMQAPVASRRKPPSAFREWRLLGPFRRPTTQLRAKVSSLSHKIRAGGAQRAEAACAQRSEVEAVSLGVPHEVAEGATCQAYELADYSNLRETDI

Histamine H1 receptor = Histamine H1 receptor (Homo sapiens, UniProt P35367); assay: Selectivity screen against human Histamine H1 receptor
[4] = target: T4, Alpha-2B adrenergic receptor (Homo sapiens, UniProt P18089); assay: […] inhibitory effect against alpha-2b Adrenergic receptor
T4 sequence (P18089 whole entry): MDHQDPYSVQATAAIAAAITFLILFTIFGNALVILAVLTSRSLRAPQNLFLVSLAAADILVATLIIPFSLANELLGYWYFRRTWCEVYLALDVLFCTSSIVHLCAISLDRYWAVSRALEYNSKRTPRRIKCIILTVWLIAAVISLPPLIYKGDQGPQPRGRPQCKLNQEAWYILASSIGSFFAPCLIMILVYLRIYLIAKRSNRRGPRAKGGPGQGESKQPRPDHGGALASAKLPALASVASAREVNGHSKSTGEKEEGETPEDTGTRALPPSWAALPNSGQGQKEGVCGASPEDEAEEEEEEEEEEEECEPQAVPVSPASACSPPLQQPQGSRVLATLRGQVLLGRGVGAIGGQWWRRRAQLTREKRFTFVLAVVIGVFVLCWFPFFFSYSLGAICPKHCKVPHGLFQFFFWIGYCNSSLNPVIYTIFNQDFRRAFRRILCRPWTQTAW

[5] = target: T5, Alpha-2C adrenergic receptor (Homo sapiens, UniProt P18825); assay: […] inhibitory effect against Alpha-2C adrenergic receptor
T5 sequence (P18825 whole entry): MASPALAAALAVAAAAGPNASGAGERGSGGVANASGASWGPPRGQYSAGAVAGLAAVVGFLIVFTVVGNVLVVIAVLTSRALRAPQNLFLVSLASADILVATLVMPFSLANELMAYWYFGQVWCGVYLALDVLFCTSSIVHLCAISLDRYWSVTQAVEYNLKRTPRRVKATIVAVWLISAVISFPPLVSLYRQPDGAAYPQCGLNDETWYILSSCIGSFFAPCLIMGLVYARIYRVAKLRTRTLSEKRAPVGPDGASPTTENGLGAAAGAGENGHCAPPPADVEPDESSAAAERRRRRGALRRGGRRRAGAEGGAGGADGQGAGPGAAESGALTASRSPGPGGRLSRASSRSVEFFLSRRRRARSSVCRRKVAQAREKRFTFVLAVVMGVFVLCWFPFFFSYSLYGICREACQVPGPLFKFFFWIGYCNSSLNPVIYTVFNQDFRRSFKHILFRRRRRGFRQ

[6] = t1/2 value in rat; format: ADME, organism-based; settings: in vivo
[7] = target: T6, Alpha-2A adrenergic receptor (Homo sapiens, UniProt P08913); assay: […] inhibitory effect against Alpha-2A adrenergic receptor
T6 sequence (P08913 whole entry): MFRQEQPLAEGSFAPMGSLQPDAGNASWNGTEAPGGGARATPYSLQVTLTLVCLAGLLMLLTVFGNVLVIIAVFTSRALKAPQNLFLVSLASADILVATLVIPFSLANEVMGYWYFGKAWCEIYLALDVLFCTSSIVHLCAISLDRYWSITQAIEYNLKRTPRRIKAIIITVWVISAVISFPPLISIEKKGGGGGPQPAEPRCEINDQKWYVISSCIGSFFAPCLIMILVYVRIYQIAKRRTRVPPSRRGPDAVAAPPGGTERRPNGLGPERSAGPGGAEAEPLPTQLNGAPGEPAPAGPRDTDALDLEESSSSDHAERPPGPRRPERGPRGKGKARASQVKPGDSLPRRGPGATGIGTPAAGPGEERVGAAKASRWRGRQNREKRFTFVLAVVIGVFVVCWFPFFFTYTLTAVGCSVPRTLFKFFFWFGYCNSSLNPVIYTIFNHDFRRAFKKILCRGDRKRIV

Rattus norvegicus [8] = organism: Rattus norvegicus; assay: Dose required to inhibit the prostate contractile response by 50% after challenge with selective alpha-1a agonist A61603 and duration of action was 4 hr in an in situ rat prostate model; format: functional, Prostate gland
Rattus norvegicus [9] = organism: Rattus norvegicus; assay: Dose required to inhibit the prostate contractile response by 50% after challenge with selective alpha-1a agonist A61603 in an in situ rat prostate model; format: functional, Prostate gland
Rattus norvegicus [10] = organism: Rattus norvegicus; assay: Dose required to inhibit the prostate contractile response by 50% after challenge with selective alpha-1a agonist A61603 and duration of action was 1.5h in an in situ rat prostate model; format: functional, Prostate gland
Rattus norvegicus [11] = organism: Rattus norvegicus; assay: Dose required to inhibit the prostate contractile response by 50% after challenge with selective alpha-1a agonist A61603 and duration of action was 1 hr in an in situ rat prostate model; format: functional, Prostate gland
Rattus norvegicus [12] = organism: Rattus norvegicus; assay: Dose required to inhibit the prostate contractile response by 50% after challenge with selective alpha-1a agonist A61603 and duration of action was 2.5h in an in situ rat prostate model; format: functional, Prostate gland
[13] = Percent bioavailability in dog; format: ADME, organism-based, Canis lupus familiaris; settings: in vivo, read-out: Bioavailabiility
Rattus norvegicus [14] = organism: Rattus norvegicus; assay: Dose required to inhibit the prostate contractile response by 50% after challenge with selective alpha-1a agonist A61603 and duration of action was 3.5h in an in situ rat prostate model; format: functional, Prostate gland

Sequence of Histamine H1 receptor (P35367 whole entry): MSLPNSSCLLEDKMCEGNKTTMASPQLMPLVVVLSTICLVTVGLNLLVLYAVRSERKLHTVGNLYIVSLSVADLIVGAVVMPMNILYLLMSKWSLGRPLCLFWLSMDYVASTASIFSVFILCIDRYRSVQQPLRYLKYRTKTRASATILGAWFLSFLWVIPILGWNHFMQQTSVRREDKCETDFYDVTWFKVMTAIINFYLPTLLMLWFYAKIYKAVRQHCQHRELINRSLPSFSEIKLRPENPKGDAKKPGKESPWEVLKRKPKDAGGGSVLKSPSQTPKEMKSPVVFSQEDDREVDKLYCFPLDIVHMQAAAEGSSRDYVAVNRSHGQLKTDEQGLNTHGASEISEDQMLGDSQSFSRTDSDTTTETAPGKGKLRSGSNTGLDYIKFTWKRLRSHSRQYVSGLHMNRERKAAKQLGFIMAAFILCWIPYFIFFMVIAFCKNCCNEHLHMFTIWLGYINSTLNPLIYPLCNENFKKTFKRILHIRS

## CC1=C(C(=O)NCCCN2CCC(c3ccc(F)cc3)CC2)[C@@H](c2ccc(F)c(F)c2)CC(=O)N1C
[1]
  Ki: 0.054 µM
[2]
  Ki: 0.0007 µM
[3]
  Ki: 0.25 µM

## CC1=C(C(=O)NCCCN2CCC(C#N)(c3ccc(F)cc3)CC2)[C@@H](c2ccc(F)c(F)c2)CC(=O)N1
[1]
  Ki: 1.04 µM
[2]
  Ki: 0.0018 µM
[3]
  Ki: 1.05 µM
Histamine H1 receptor
  Ki: 0.063 µM

## CC1=C(C(=O)NCCCN2CCC(c3ccc(F)cc3C#N)CC2)[C@@H](c2ccc(F)c(F)c2)CC(=O)N1C
[1]
  Ki: 0.366 µM
[4]
  Ki: 0.288 µM
[5]
  Ki: 3.85 µM
[6]
  half-life: 1.4 h
[7]
  Ki: 4.52 µM
[2]
  Ki: 0.0008 µM
Rattus norvegicus [8]
  AD50: 0.009 mg/kg
[3]
  Ki: 0.59 µM
Histamine H1 receptor
  Ki: 0.398 µM

## CC1=C(C(=O)NCCCN2CCC(C#N)(c3ccc(F)cc3)CC2)[C@@H](c2ccc(F)c(F)c2)CC(=O)N1C
[1]
  Ki: 0.425 µM
Rattus norvegicus [9]
  AD50: 0.025 mg/kg
[4]
  Ki: 0.776 µM
[5]
  Ki: 1.1 µM
[7]
  Ki: 1.86 µM
[2]
  Ki: 0.0019 µM
[3]
  Ki: 0.88 µM
Histamine H1 receptor
  Ki: 0.355 µM

## CC1=C(C(=O)NCCCN2CCC(C#N)(c3ccc(F)cc3F)CC2)[C@@H](c2ccc(F)c(F)c2)CC(=O)N1
[1]
  Ki: 0.805 µM
[4]
  Ki: 0.531 µM
[5]
  Ki: 2 µM
Rattus norvegicus [10]
  AD50: 0.017 mg/kg
[7]
  Ki: 1.97 µM
[2]
  Ki: 0.001 µM
[3]
  Ki: 0.588 µM
Histamine H1 receptor
  Ki: 0.108 µM

## CC1=C(C(=O)NCCCN2CCC(C#N)(c3ccc(F)cc3F)CC2)[C@@H](c2ccc(F)c(F)c2)CC(=O)N1C
[1]
  Ki: 0.842 µM
[4]
  Ki: 0.955 µM
[5]
  Ki: 1.91 µM
Rattus norvegicus [11]
  AD50: 0.029 mg/kg
[7]
  Ki: 3.39 µM
[2]
  Ki: 0.0011 µM
[3]
  Ki: 1.16 µM
Histamine H1 receptor
  Ki: 0.302 µM

## CC1=C(C(=O)NCCCN2CCC(c3ccccc3C#N)CC2)[C@@H](c2ccc(F)c(F)c2)CC(=O)N1C
[1]
  Ki: 1.2 µM
[2]
  Ki: 0.003 µM
[3]
  Ki: 0.682 µM

## CC1=C(C(=O)NCCCN2CCC(C#N)(c3ccccn3)CC2)[C@@H](c2ccc(F)c(F)c2)CC(=O)N1C
[1]
  Ki: > 2 µM
[3]
  Ki: > 5 µM

## CC1=C(C(=O)NCC(C)CN2CCC(C#N)(c3ccccn3)CC2)[C@@H](c2ccc(F)c(F)c2)CC(=O)N1 (stereo not given in full)
[1]
  Ki: > 2 µM
[2]
  Ki: 0.042 µM
[3]
  Ki: > 5 µM

## CC1=C(C(=O)NCCCN2CCC(C#N)(c3ccc(F)cc3C#N)CC2)[C@@H](c2ccc(F)c(F)c2)CC(=O)N1
[1]
  Ki: > 2 µM
[4]
  Ki: 0.676 µM
[5]
  Ki: 4.68 µM
[7]
  Ki: 7.85 µM
[2]
  Ki: 0.0014 µM
[3]
  Ki: > 5 µM
Histamine H1 receptor
  Ki: 0.091 µM

## CC1=C(C(=O)NCCCN2CCC(c3ccccc3C#N)CC2)[C@@H](c2ccc(F)c(F)c2)CC(=O)N1
[1]
  Ki: 0.33 µM
[2]
  Ki: 0.001 µM
[3]
  Ki: 0.33 µM

## CC1=C(C(=O)NCCCN2CCC(c3ccc(F)cc3C#N)CC2)[C@@H](c2ccc(F)c(F)c2)CC(=O)N1
[1]
  Ki: 0.1 µM
Rattus norvegicus [12]
  AD50: 0.005 mg/kg
[4]
  Ki: 0.145 µM
[5]
  Ki: 1.48 µM
[6]
  half-life: 4.8 h
[13]
  bioavailability: 34%
[7]
  Ki: 1.29 µM
[2]
  Ki: 0.0002 µM
[3]
  Ki: 0.15 µM
Histamine H1 receptor
  Ki: 0.058 µM

## CC1=C(C(=O)NCCCN2CCC(C#N)(c3ccc(F)cc3C#N)CC2)[C@@H](c2ccc(F)c(F)c2)CC(=O)N1C
[1]
  Ki: > 2 µM
[4]
  Ki: 1.76 µM
[5]
  Ki: 6.53 µM
[7]
  Ki: 13.6 µM
[2]
  Ki: 0.007 µM
[3]
  Ki: > 5 µM
Histamine H1 receptor
  Ki: 0.616 µM

## CC1=C(C(=O)NCCCN2CCC(C#N)(c3ccccc3C#N)CC2)[C@@H](c2ccc(F)c(F)c2)CC(=O)N1C
[1]
  Ki: > 2 µM
[2]
  Ki: 0.013 µM
[3]
  Ki: > 5 µM

## CC1=C(C(=O)NCCCN2CCC(c3ccc(F)cc3)CC2)[C@@H](c2ccc(F)c(F)c2)CC(=O)N1
[1]
  Ki: 0.037 µM
Rattus norvegicus [9]
  AD50: 0.032 mg/kg
[4]
  Ki: 0.162 µM
[5]
  Ki: 0.313 µM
[7]
  Ki: 0.229 µM
[2]
  Ki: 0.0004 µM
[3]
  Ki: 0.2 µM
Histamine H1 receptor
  Ki: 0.019 µM

## CC1=C(C(=O)NCCCN2CCC(C#N)(c3ccccc3C#N)CC2)[C@@H](c2ccc(F)c(F)c2)CC(=O)N1
[1]
  Ki: > 2 µM
[2]
  Ki: 0.0032 µM
[3]
  Ki: > 5 µM

## CCOc1ccccc1OCCN[C@H](C)Cc1ccc(OC)c(S(N)(=O)=O)c1 [TAMSULOSIN]
Rattus norvegicus [14]
  AD50: 0.003 mg/kg
